Measurements as given in a melting point compilation (Tetko et al.; mined from patent text by program, amines drawn as free bases though some values may be those of a salt).

Point of comparison: CN(C)c1ccc(O)c2c1CC1CC3C(N(C)C)C(O)=C(C(N)=O)C(=O)C3(O)C(O)=C1C2=O (stereo not drawn), melting point 113 °C. Against it:
- CC(C)COC(=O)C(C#N)=CNCc1ccco1 — lower, 85 to 87 °C
- COc1ccccc1C(O)(CC#N)c1ccccc1OC — higher, 170 to 180 °C
- CSc1nc(C)nc2c1-c1ccc(Cl)cc1C(c1ccccc1)=NC2 — higher, 181 to 183 °C
- Cn1cc(-c2cc3cccnc3[nH]2)c2ccc(C(=O)NCCO)cc21 — higher, 264 to 267 °C
- COc1ccc2c(c1)c(N1CCN(C#N)CC1)nn2S(=O)(=O)c1ccccc1 — higher, 171 to 173 °C
- Cc1cc(Oc2cc(Cl)ccc2[N+](=O)[O-])n[nH]1 — lower, 87 to 90 °C
- COc1ccc(CCNC(=O)C(=O)NCc2ccncc2)cc1OC1CCCC1 — higher, 129 to 131 °C
- COc1c([N+](=O)[O-])cc(C(C)=O)c2c1CCCC2 — lower, 76 to 77 °C
- COC(=O)c1cnc(OCc2ccccn2)nc1NCc1ccc(OC)c(Cl)c1 — higher, 135 to 136 °C
- COC(=O)C1CCc2sccc2C1=O (stereo not drawn) — lower, 85 to 86 °C
- COCCOc1ccc(CCCNS(=O)(=O)c2ccccc2[N+](=O)[O-])c(Oc2ncc(C(F)(F)F)cc2Cl)c1 — higher, 126 °C
- CCCc1ccccc1OCCCOc1cccc(OC(=CC(=O)OC)C(=O)OC)c1CC — lower, 63.5 to 66 °C
- CS(=O)(=O)c1ccc(-c2nc(C(F)(F)F)nc(N=[N+]=[N-])c2-c2ccc(Cl)cc2)cc1 — higher, 317 to 320 °C
- CN(O)C(=O)Nc1ccc(Cl)c(C(F)(F)F)c1 — higher, 114 to 115 °C
- O=C1c2ccccc2C(=O)N1CCCCn1ccnc1 — lower, 75 to 77 °C
- COc1cc2ncc(C#N)c(Nc3cc(C)c(C)cc3N)c2cc1OC — higher, 260 to 262 °C
- CCCOC(=O)C1=C(C)NC(C(OC)OC)=C(C(=O)OC)C1c1ccccc1C#N (stereo not drawn) — higher, 139 to 141 °C
- CCCc1c(OCCCS(=O)(=O)c2ccc(C3=CCC(=O)O3)cc2)ccc(C(C)=O)c1O — higher, 135 to 136 °C
- CCOC(=O)c1cn(-c2ccccn2)c2oc(CN3CCOCC3)cc2c1=O — higher, 192 to 195 °C
- O=C1CCC(N2Cc3cc(CNC(=O)Nc4c(Cl)cccc4Cl)ccc3C2=O)C(=O)N1 (stereo not drawn) — higher, 238 to 240 °C
- CC(C)(C)NC(=O)[C@@H]1CC(=O)CN1C(=O)OC(C)(C)C — higher, 147 to 149 °C
- O=C1CCCN1CCCN=c1sc2ccc(Cl)cc2s1 — lower, 97 to 97.5 °C
- O=Cc1cccn1-c1ccc(C(=O)O)cc1 — higher, 269 to 270 °C
- O=Cc1cc2n(n1)CCOC2 — lower, 91 °C
- COP(=O)(CC(=C(c1ccc(F)cc1)c1ccc(F)cc1)n1cnnn1)OC — higher, 133 to 134 °C
- C=CCc1c2nc(C(=O)OC)cc(Cl)c2cc2c(=O)cc(C(=O)OCC)oc12 — higher, 197 to 198 °C
- c1ccc(Nc2ncc3ccncc3n2)cc1 — higher, 161 °C
- COc1ccc(C2(O)c3ccccc3-c3ccccc32)cc1 — lower, 91 to 93 °C
- O=C(NCCOc1ccc(CC(Oc2ccccc2)C(=O)O)cc1)c1ccc(-c2ccc(F)cc2)cc1 (stereo not drawn) — higher, 195 to 196 °C
- O=C(O)CSc1nc(Cl)cc(NCc2ccc(Cl)c(Cl)c2)n1 — lower, 64 to 69 °C
- CC(C)(C)C(=O)OCn1c(-c2cnn(-c3c(Cl)cc(C(F)(F)F)cc3Cl)n2)nc(C#N)c1C#N — lower, 103 to 104 °C
- CC1C(=O)N(CCO)C(=S)N1c1ccc(Oc2ccccc2)cc1 (stereo not drawn) — higher, 120 °C
- COc1cc(Nc2nccc(-c3ccc4c(c3)CCCC4)n2)cc(OC)c1OC — higher, 150 to 151 °C
- COc1cc2nc(S(=O)Cc3nccc(N4CCOCC4)c3F)[nH]c2cc1OC (stereo not drawn) — higher, 213 to 215 °C
- CSc1cc(C)nc(SC)c1NC(=O)CCCCCCSc1nc2cccc(C(F)(F)F)c2o1 — higher, 129 to 131 °C
- COCCc1nc2c(N)nc3cc(-c4cccc(CO)c4)ccc3c2n1CC(C)(C)O — higher, 212 to 213 °C
- O=C(O)/C=C/c1ccc(-c2nc3c(=O)n(CC4CCCC4)c(=O)n(CC4CCCC4)c3[nH]2)cc1 — higher, > 300 °C
